For data set [1], the target named is T1, Renin (Macaca fascicularis, UniProt Q6DLS0).
T1 sequence (Q6DLS0 whole entry): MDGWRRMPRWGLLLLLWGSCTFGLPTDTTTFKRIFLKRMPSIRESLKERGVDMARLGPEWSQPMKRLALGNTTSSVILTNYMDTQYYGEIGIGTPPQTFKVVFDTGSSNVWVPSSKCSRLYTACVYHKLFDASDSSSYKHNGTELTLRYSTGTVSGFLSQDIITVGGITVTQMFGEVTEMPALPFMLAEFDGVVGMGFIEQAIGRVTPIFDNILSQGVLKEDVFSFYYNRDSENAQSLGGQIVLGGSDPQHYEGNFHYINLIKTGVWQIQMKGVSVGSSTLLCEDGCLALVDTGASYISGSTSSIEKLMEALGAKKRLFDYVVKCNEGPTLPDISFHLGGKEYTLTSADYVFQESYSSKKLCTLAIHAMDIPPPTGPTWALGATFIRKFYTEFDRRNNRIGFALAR
Description: Inhibition of renin in cynomolgus monkey plasma after 60 mins by competitive radioimmunoassay.

Data set [2] addresses T2, Renin (Homo sapiens, UniProt P00797).
T2 sequence (P00797 whole entry): T1 sequence (Q6DLS0 whole entry) with A68T, L214I, A235S
Description: Inhibition of recombinant human renin using Arg-Glu(EDANS)-Ile-His-Pro-Phe-His-Leu-Val-Ile-His-Thr-Lys(DABCYL)-Arg as substrate incubated for 10 mins prior to substrate addition measured after 90 mins by fluorimetric analysis.

Data set [3] in a line: Volume of distribution at steady state in Sprague-Dawley rat at 1 mg/kg, iv. It counts as ADME, organism-based. The arrangement: dose 1 mg/kg, route intravenous. To be noted: in vivo, read-out: Vdss.
For data set [4], the system named is Rattus norvegicus. Description: Antihypertensive activity in transgenic rat expressing human angiotensin and renin assessed as reduction in mean arterial blood pressure at 10 mg/kg, po measured up to 24 hrs. It counts as functional, organism-based. Details: dose 10 mg/kg. The note with it: Artery.
Data set [5] is described as follows: AUC (0 to 24 hrs) in Sprague-Dawley rat at 10 mg/kg, po. It counts as ADME, organism-based. Details: time < 24 hr, dose 10 mg/kg, route oral. The note with it: plasma.
Data set [6] can be described thus: Cmax in Sprague-Dawley rat at 10 mg/kg, po. Details: dose 10 mg/kg, route oral. The note with it: in vivo. It counts as ADME, organism-based.
Data set [7] can be described thus: Half life in Sprague-Dawley rat at 1 mg/kg, iv. It counts as ADME, organism-based. The arrangement: dose 1 mg/kg, route intravenous. The note with it: in vivo.
The nature of data set [8]: Oral bioavailability in Sprague-Dawley rat at 10 mg/kg. In kind it is ADME, organism-based. To be noted: in vivo.
Data set [9] in a line: Clearance in Sprague-Dawley rat at 1 mg/kg, iv. Details: dose 1 mg/kg, route intravenous. The note with it: in vivo. It counts as ADME, organism-based.

The record followed here is ChEMBL document CHEMBL2203232, “Design and discovery of new (3S,5R)-5-[4-(2-chlorophenyl)-2,2-dimethyl-5-oxopiperazin-1-yl]piperidine-3-carboxamides as potent renin inhibitors” (Bioorg Med Chem Lett, 2012).

Molecules are shown by their SMILES. Positions count from the first letter of the chain named. Activity calls are given as the source filed them. The calls are words filed in the database; no cut-off is given here.

One may read the IC50 as the concentration at which inhibition is half-maximal. One may read the AUC(0-t) as exposure summed from dosing to a finite time, without extrapolation to infinity. In general, Cmax refers to the highest concentration seen after dosing. For orientation: half-life means the time in which the quantity being followed falls by half. One may read the bioavailability as dose-corrected exposure relative to a reference, in per cent. As a reminder, the clearance is the rate of elimination divided by the concentration.

In turn, `CC(C)CC(CC(C)C)NC(=O)[C@@H]1CNC[C@H](N2CC(=O)N(c3ccccc3Cl)CC2(C)C)C1` returned a half-maximal inhibitory concentration (IC50) in data set [1] of 10 nM.

As for `CC(C)C[C@@H](NC(=O)[C@@H]1CNC[C@H](N2CC(=O)N(c3ccccc3Cl)CC2(C)C)C1)C(O)C(C)C` (stereo in doubt; 14), the IC50 in data set [2] came to 2.5 nM; in data set [1] it was 7.5 nM.

In turn, `CC(C)CCNC(=O)[C@@H]1CNC[C@H](CN2CC(=O)N(c3ccccc3Cl)CC2(C)C)C1` had an IC50 in data set [1] greater than 1000 nM.

As for `CCOC[C@@H](CC(C)C)NC(=O)[C@@H]1CNC[C@H](N2CC(=O)N(c3ccccc3Cl)CC2(C)C)C1.O=C(O)/C=C/C(=O)O`, in [3], the Vd amounted to 5.8 L/kg. In data set [4], the result was Active. Moreover, the area under the curve AUC(0-t) at 24 h in data set [5] turned out to be 1940 ng·h/mL. In data set [6], the Cmax was 540 ng/mL. Besides, the half-life in data set [7] is 3.2 h. The IC50 in [2] was 1.3 nM; in [1] it was 1.4 nM. In [8], this compound had a bioavailability of 45%. This compound displayed a clearance in data set [9] of 31 mL/min/kg.

Regarding `CC(C)C[C@@H](NC(=O)[C@@H]1CNC[C@H](N2CC(=O)N(c3ccccc3Cl)CC2(C)C)C1)c1cccnc1`, the results for the concentration for half-maximal inhibition (IC50) in data set [2] and in data set [1] were 2.1 nM and 4.2 nM, respectively.

`CCC[C@@H](NC(=O)[C@@H]1CNC[C@H](N2CC(=O)N(c3ccccc3Cl)CC2(C)C)C1)c1ccccc1`: the 50% inhibitory concentration (IC50) in [2] was found to be 2.5 nM; in data set [1], 18 nM.

`CC(C)C[C@@H](NC(=O)[C@@H]1CNC[C@H](N2CC(=O)N(c3ccccc3Cl)CC2(C)C)C1)C(O)C(C)C` (stereo in doubt; 13): the IC50 worked out at 2.3 nM in [2] and 4.8 nM in data set [1].

Take `CC(C)CCNC(=O)[C@@H]1CNC[C@H](N2CC(=O)N(c3ccccc3Cl)CC2(C)C)C1`: in data set [1], the concentration for half-maximal inhibition (IC50) is 54 nM.

In the case of `CC[C@@H](NC(=O)[C@@H]1CNC[C@H](N2CC(=O)N(c3ccccc3Cl)CC2(C)C)C1)c1ccccc1`, the results for the IC50 in data set [2] and in data set [1] were 2.1 nM and 6.6 nM, respectively.

As for `CC[C@H](CC(C)C)NC(=O)[C@@H]1CNC[C@H](N2CC(=O)N(c3ccccc3Cl)CC2(C)C)C1`, the IC50 in data set [2] was 2.8 nM; in data set [1], 16 nM.

On to `CC(C)C[C@@H](NC(=O)[C@@H]1CNC[C@H](N2CC(=O)N(c3ccccc3Cl)CC2(C)C)C1)c1ccccc1`, for which the values for the half-inhibitory concentration (IC50) in data set [2] and in [1] were 2.1 nM and 9 nM, respectively.

`CC(C)CCNC(=O)[C@@H]1CNC[C@H](C(=O)N2CC(=O)N(c3ccccc3Cl)CC2(C)C)C1`: the half-maximal inhibitory concentration (IC50) in [2] and in data set [1] was greater than 1000 nM each time.

As to `CC(C)C[C@@H](NC(=O)[C@@H]1CNC[C@H](N2CC(=O)N(c3ccccc3Cl)CC2(C)C)C1)C(=O)N(C)C`, the values for the IC50 in data set [2] and in data set [1] were 8.4 nM and 23 nM, respectively.
